The results in this text go back to patent US10202371B2, “Oxazolidin-2-one-pyrimidine derivatives and the use thereof as phosphatidylinositol-3-kinase inhibitors” (Novartis AG, priority 2012, dated 2019).

In one series the target is PI3Kgamma (Homo sapiens (Human), UniProt P48736). Nature of the series: Biochemical assay PI3Kgamma (Adapta TR-FRET). The following applies: read-out: PI3Kg/IC50. The source says: The TR-FRET Adapta™ Universal Kinase Assay Kit was purchased from Invitrogen
Corporation (Carlsbad/CA, USA) (Cat. No. PV5099). The kit contains the following reagents: Adapta Eu-anti-ADP Antibody (Europium labeled anti-ADP antibody in HEPES buffered saline, Cat. No. PV5097), Alexa Fluor® 647-labeled ADP tracer (Alexa Fluor® 647-labeled ADP tracer in HEPES buffered saline, Cat. No. PV5098), proprietary TR-FRET dilution buffer pH 7.5 (Cat. No. PV3574).
PIK3CD substrate Phosphatidylinositol was obtained from Invitrogen (vesicules consisting of 2 mM PI in 50 mM HEPES pH7.5; Cat. No. PV5371).
Time-Resolved Fluorescence Resonance Energy Transfer (TR-FRET) is a technology based on energy transfer between two adjacent dyes, from an excited electron in one dye (the donor) to an electron of an adjacent dye (the acceptor) through resonance, then released as a photon. This energy transfer is detected by an increase in the fluorescence emission of the acceptor, and a decrease in the fluorescence emission of the donor. TR-FRET assays for protein kinases use a long-lifetime lanthanide Terbium or Europium chelates as the donor species which overcome interference from compound autofluorescence or light scatter from precipitated compounds, by introducing a delay after excitation by a flashlamp excitation source. Results are often expressed as a ratio of the intensities of the acceptor and donor fluorophores. The ratiometric nature of such a value corrects for differences in assay volumes between wells, as well as corrects for quenching effects due to colored compounds. The Adapta™ assay can be divided into two phases: a kinase reaction phase and an ADP detection phase. In the kinase reaction phase, all kinase reaction components are added to the well and the reaction is allowed to incubate for a set period of time specific for each kinase. After the reaction, a detection solution of Eu-labeled anti-ADP antibody, Alexa Fluor® 647-labeled ADP tracer, and EDTA (to stop the kinase reaction) are added to the assay well. ADP formed by the kinase reaction will displace the Alexa Fluor® 647-labeled ADP tracer from the antibody, resulting in a decrease in TR-FRET signal. In the presence of an inhibitor, the amount of ADP formed by the kinase reaction is reduced, and the resulting intact antibody-tracer interaction maintains a high TR-FRET signal. In the Adapta™ assay, the donor (Europium-anti-ADP antibody) is excited at 340 nm and will transfer its energy to the acceptor (Alexa Fluor® 647-labeled ADP tracer). The emission from the Alexa Fluor® 647 can be monitored with a filter centered at 665 nm because it is located between the emission peaks of the donor, which is measured at 615/620 nm.
50 nL of compound dilutions were dispensed onto white 384-well small volume polystyrene plate as described in section 2.2. Then 5 μL of PI3Kg and PI3Kd and lipid substrate (PI or PIP2:PS) followed by 5 μL of ATP (final assay volume 10 μL) are incubated at RT. The standard reaction buffer for the Adapta™ TR-FRET assay contained 10 mM Tris-HCl pH 7.5, 3 mM MgCl2, 50 mM NaCl, 1 mM DTT, 0.05% CHAPS. Reactions were stopped with 5 μL of a mixture of EDTA containing the Eu-labeled anti-ADP antibody and the Alexa Fluor® 647-labeled ADP tracer in TR-FRET dilution buffer (proprietary to IVG). Plates are read 15 to 60 mins later in a Synergy2 reader using an integration time of 0.4 seconds and a delay of 0.05 seconds. […] The standard compound NVP-BGT226 was used as a reference compound and included in all assay plates in the form of 16 dilution points in duplicate.
Data are analyzed using Excel fit software or Graphpad Prism. EC50 values were derived by fitting a sigmoidal dose-response curve to a plot of assay readout over inhibitor concentration. All fits were performed with the program XLfit4 (ID Business Solutions, Guildford, UK). […] All fits were performed with the program XLfit4 (ID Business Solutions, Guildford, UK).
A general note: TR-FRET usually uses a lanthanide donor and a delayed reading to cut background.

Series [1] is described as follows: Photostability in light stability chamber. Format: physicochemical. Particulars: 1.0 mg/ml in ethanol, 19620 kJ/m^2 over 13 h, 15° C., UPLC 254 nm. As for the experimental part:
Samples investigated for light stability were treated in a light stability chamber (Atlas CPS+, Serial Number 0704013). Solutions of 1.0 mg/ml in ethanol were prepared for each molecule and aliquots of 0.5 mL were dispensed into suitable micro tubes. All measurements were done in duplicate and compared to a reference wrapped in aluminium foil during light exposure. Solutions were exposed to 19620 kJ/m^2 over 13 h. Samples were kept at 15° C. during the experiment. […] The peak areas were automatically integrated, and the degradation percentage calculated as the difference between the corresponding peak area percentage of the reference sample and the average peak area percentage of the exposed samples (duplicate).

For a further series, the target named is human mTOR (GST-mTOR) (Homo sapiens (Human), UniProt P42345). Nature of the series: Binding assay mTor (Lanthascreen kinase binding assay). Particulars: Tracer-314. The source says:
Catalytically active human PI3Kα, PI3Kβ, PI3Kδ, and mTOR were cloned, expressed and purtified as described (Maira S M, Stauffer F, Brueggen J, Furet P, Schnell C, Fritsch C, Brachmann S, Chène P, de Pover A, Schoemaker K, Fabbro D, Gabriel D, Simonen M, Murphy L, Finan P, Sellers W, Garcia-Echeverria C (2008), Mol Cancer Ther. 7:1851-63 and Maira S M, Pecchi S, Brueggen J, Huh K, Schnell C, Fritsch C, Nagel T, Wiesmann M, Brachmann S, Dorsch M, Chène P, Schoemaker K, De Pover A, Menezes D, Fabbro D, Sellers W, Garcia-Echeverria C, Voliva CF (2011), Mol. Cancer Ther. accepted).
TR-FRET assays for protein kinases uses a long-lifetime lanthanide Terbium or Europium chelates as the donor species which overcome interference by compound autofluorescence or light scatter from precipitated compounds, by introducing a delay after excitation by a flashlamp excitation source. Results are often expressed as a ratio of the intensities of the acceptor and donor fluorophores. The ratiometric nature of such a value corrects for differences in assay volumes between wells, as well as corrects for quenching effects due to colored compounds.
Binding Assays are based on the binding and displacement of an Alexa Fluor® 647-labeled, ATP-competitive kinase inhibitors to the kinase of interest. Invitrogen's “Kinase Tracers” have been developed to address a wide range of kinase targets and are based on ATP-competitive kinase inhibitors, making them suitable for detection of any compounds that bind to the ATP site or to an allosteric site altering the conformation of the ATP site. Inhibitors that bind the ATP site include both Type I kinase inhibitors, which bind solely to the ATP site, and Type II inhibitors (e.g., Gleevec®/Imatinib, Sorafenib, BIRB-796), which bind to both the ATP site and a hydrophobic site exposed in the DFG-out (non-active) conformation. […] The sole exception was a substrate-competitive compound, and thus not a true allosteric inhibitor.
In contrast to most fluorescence-based kinase activity assays, LanthaScreen® Eu^3+ Kinase Binding Assays can be read continuously, which facilitates evaluation of compounds with slow binding kinetics. Also, unlike most activity assays, binding assays can be performed using either active or non-activated kinase preparations, which enables characterization of compounds that bind preferentially to non-activated kinases, such as Gleevec®/imatinib and some allosteric inhibitors.
In the Lanthascreen™ kinase binding assay, the donor (Eu^3+-anti-GST antibody) is excited at 340 nm and will transfer its energy to the acceptor (Alexa Fluor® 647-labeled ATP-competitive kinase inhibitor=Tracer-314). The emission from the Tracer-314 (Alexa Fluor® 647 inhibitor) can be monitored with a filter centered at 665 nm because it is located between the emission peaks of the donor, which is measured at 615/620 nm. The binding of both, the Tracer-314 and Eu^3+-anti-GST antibody, to the kinase results in a high degree of FRET from the Eu^3+-donor fluorophore to the Alexa-Fluor® 647-acceptor fluorophore on the Tracer-314. Binding of an inhibitor to the kinase competes for binding with the tracer, resulting in a loss of FRET.
50 nL of compound dilutions were dispensed onto white 384-well small volume polystyrene plate as described in section 2.2. Then 5 μL of GST-mTOR and Europium-anti-GST antibody followed by 5 μL of tracer-314 (final assay volume 10 μL) are incubated at RT. The standard reaction buffer for the Lanthascreen™ kinase binding assay contained 50 mM HEPES pH 7.5, 5 mM MgCl2, 1 mM EGTA, 0.01% Pluronic F-127. Plates are read 60 mins later in a Synergy2 reader using an integration time of 0.2 microseconds and a delay of 0.1 microseconds.
To calculate the emission ratio, the signal emitted at 665 nm from the acceptor (Alexa Fluor® 647-labeled Tracer-314) is divided by the signal emitted at 620 nm from the donor (Eu^3+ anti-GST antibody) […]

PI3Kgamma, sequence (P48736 whole entry, species assumed): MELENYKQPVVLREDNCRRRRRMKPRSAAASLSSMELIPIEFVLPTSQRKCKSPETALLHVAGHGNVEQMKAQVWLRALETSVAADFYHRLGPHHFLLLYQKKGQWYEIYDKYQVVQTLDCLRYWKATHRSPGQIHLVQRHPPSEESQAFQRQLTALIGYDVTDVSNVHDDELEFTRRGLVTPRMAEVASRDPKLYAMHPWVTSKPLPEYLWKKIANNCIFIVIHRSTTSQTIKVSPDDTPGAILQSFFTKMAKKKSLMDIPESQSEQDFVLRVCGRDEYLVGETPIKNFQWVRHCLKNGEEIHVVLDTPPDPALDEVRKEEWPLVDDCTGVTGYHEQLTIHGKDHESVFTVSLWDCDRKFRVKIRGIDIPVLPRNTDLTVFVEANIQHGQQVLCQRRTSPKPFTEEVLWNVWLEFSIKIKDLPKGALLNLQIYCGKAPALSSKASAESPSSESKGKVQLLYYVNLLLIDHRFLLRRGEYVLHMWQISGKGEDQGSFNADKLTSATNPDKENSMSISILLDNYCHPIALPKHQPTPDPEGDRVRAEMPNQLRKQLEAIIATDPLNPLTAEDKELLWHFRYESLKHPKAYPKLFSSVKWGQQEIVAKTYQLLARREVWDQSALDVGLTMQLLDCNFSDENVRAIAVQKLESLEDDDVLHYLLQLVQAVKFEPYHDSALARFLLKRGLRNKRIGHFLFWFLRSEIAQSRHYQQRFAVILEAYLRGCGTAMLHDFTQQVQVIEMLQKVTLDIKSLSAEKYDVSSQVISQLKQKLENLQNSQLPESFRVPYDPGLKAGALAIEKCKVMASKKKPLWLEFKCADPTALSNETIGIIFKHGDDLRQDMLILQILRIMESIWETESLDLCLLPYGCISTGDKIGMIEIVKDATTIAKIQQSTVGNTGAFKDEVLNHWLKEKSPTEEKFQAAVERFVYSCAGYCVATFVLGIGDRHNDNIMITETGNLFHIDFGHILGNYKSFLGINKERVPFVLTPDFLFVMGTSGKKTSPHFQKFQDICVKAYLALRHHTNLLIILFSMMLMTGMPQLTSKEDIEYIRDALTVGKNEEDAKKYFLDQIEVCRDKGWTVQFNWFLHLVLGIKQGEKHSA

`CC[C@H]1[C@@H](c2ccccc2)OC(=O)N1c1cc(-c2cnc(N)nc2C(F)(F)F)nc(N2CCOCC2)n1` [Example 4]: the IC50 on PI3Kgamma stood at 4.5 µM.
As for `CC[C@H]1[C@H](c2cccc(OC)c2)OC(=O)N1c1cc(-c2cnc(N)nc2C(F)(F)F)nc(N2CCOCC2)n1` [Example 6], in series [1], the “% degradation in photostability assay (average)” value is 0%. The IC50 was 4.7 µM on human mTOR (GST-mTOR) and 7 µM on PI3Kgamma.
